Data: paper PMC11104609, “Discovery of allosteric regulators with clinical potential to stabilize alpha-L-iduronidase in mucopolysaccharidosis type I” (PLOS ONE, 2024)

Columns and labels:
IDUA [1] = biological target: T1, IDUA (Homo sapiens, UniProt P35475); assay: IDUA enzymatic activity in patient-derived fibroblasts after rhIDUA with or without compound (4-MUI substrate); format: cell-based; parameters: Institute of Biotechnology and Biomedicine, Autonomous University of Barcelona (UAB), Bellaterra, Spain
T1 sequence (P35475 28-653): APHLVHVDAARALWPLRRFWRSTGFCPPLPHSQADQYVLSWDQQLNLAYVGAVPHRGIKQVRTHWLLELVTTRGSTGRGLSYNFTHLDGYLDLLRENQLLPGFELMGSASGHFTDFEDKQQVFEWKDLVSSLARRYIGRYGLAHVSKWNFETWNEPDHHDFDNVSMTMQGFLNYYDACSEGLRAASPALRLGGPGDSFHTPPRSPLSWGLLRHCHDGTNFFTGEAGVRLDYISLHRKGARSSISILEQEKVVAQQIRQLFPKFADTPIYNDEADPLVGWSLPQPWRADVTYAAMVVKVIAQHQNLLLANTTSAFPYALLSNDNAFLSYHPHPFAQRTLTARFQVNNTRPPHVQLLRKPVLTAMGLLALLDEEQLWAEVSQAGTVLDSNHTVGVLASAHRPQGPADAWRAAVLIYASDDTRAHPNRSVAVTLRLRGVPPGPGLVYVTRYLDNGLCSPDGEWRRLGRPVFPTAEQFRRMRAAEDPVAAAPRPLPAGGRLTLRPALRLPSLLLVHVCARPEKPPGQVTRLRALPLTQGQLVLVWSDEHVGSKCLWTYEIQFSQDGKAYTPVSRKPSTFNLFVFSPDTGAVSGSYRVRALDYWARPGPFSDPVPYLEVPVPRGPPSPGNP
Experimental: Fibroblasts derived from Hurler (GM00798) and Hurler/Scheie patients (GM02845, GM00512, GM01898, GM00963) were purchased from Coriell (Camden, NJ). Fibroblasts were cultured in Dulbecco’s modified Eagle’s medium (DMEM, Gibco) supplemented with 10% inactivated fetal bovine serum (FBS, Gibco) and 1% penicillin-streptomycin (Thermo Fisher Scientific, Waltham, MA, USA) (growth medium) at 37 °C under 5% CO2. The effect of the protein and/or compound in enhancing IDUA enzymatic activity was evaluated as follows: The specified patient-derived fibroblasts were seeded at 4x10^4 cells per well in 12-well cell culture plates in growth medium. Subsequently, cells were incubated with indicated dose of rhIDUA (obtained from the Institute of Biotechnology and Biomedicine in the UAB, Bellaterra, Spain) in the absence or presence of the compound #18 (GT-01803) for the specified incubation times at 50 μM. After incubation, cells were washed with PBS and detached using Trypsin-EDTA solution (Sigma Aldrich, St. Louis, MO, USA) to prepare cell pellets. The pellets were stored at -80 °C until activity assays were performed. IDUA activity in cell lysates was measured using 4-methylumbelliferyl IDUA substrate (4-MUI, Glycosynth Ltd., #44076, Warrington, UK). Briefly, lysates were resuspended in 120 μL of 0.9% NaCl containing 0.01% Triton X-100 lysis buffer to promote membrane disruption. Next, the cell suspension was sonicated and centrifuged to pellet insoluble materials. Then, 25 μL of lysates were mixed with 25 μL of 200 μM 4-MUI substrate solution in 0.4 M sodium formate, pH 3.5, 0.2% Triton X-100 buffer and incubated for 60 mins at 37 °C. The reaction was stopped by adding 200 μL of 0.5 M Glycine/0.3 M NaOH buffer, pH 10. The liberated 4-methylumbelliferone (4-MU) was measured on a Glomax® Discover microplate reader with excitation at 340 nm and emission at 460 nm. Protein quantification was determined using Pierce BCA Protein Assay Kit (Thermo Fisher Scientific, Waltham, MA, USA). Measurements were interpolated in a 4-MU standard curve and normalised by protein quantity.
For Fig 6A, rhIDUA concentrations of 0.187, 0.375 and 1.25 nM were tested in GM02845 fibroblasts over a 96-hour period, both in the presence and absence of the compound #18 (GT-01803) at 50 μM. In Fig 6B, 1.25 nM of rhIDUA was evaluated in GM02845, GM00798, GM00512, and GM00963 fibroblasts for 96h, with and without the compound #18 (GT-01803) at 50 μM. In Fig 6C, a concentration of 1.25 nM of the protein was applied to fibroblasts for 4, 8, 24 and 96h, with and without the compound #18 (GT-01803) at 50 μM.

IDUA [2] = biological target: T1, IDUA; assay: Differential scanning fluorimetry (DSF) thermal shift; format: binding; parameters: purchased R&D Systems
Experimental: The capacity of the compounds to stabilise IDUA was assessed by DSF. The thermal denaturation of purified human native enzyme was monitored in the presence of the extrinsic fluorescent probe SYPRO® Orange (Thermo Fisher Scientific, Waltham, MA, USA), which binds to hydrophobic parts of proteins that become exposed as the protein unfolds. […] Reactions containing 12.5 μL of 1.5 μM rhIDUA protein (purchased from R&D Systems) in 100 mM Hepes, 20 mM MgCl2, pH 7, to a final protein concentration of 0.75 μM with SYPRO Orange 10X, and 12.5 μL of the different compound solutions dissolved in 100% DMSO and diluted into the protein buffer to achieve final concentrations of 1% DMSO. The intensity of SYPRO Orange fluorescence after a systematic increase in temperature was monitored in the Roche LightCycler® 480 II device (Roche Diagnostics). The significance of the melting temperature (Tm) shifts was evaluated based on two criteria: absolute ΔTm shift > 0.5 °C (instrumental criterion) and absolute ΔTm standard deviation ≤ 0.2 (statistical criterion). The thermal shift dose response was performed at various increasing concentrations (from 0.04 to 90 μM) of compound #18 (GT-01803) with rhIDUA (obtained from the Institute of Biotechnology and Biomedicine at the Autonomous University of Barcelona (UAB), Bellaterra, Spain).

[3] = rhIDUA 1.25 nM + GT-01803 50 μM, GM02845 fibroblasts (Fig 6C)

## CCN(CC(=O)Nc1c(Cl)cccc1Cl)Cc1nc2ccsc2c(=O)[nH]1 [GT-01803]
IDUA [1]; co-administration of rhIDUA (0.187, 0.375, 1.25 nM) with 50 μM GT-01803, GM02845, 96 h, p ≤ 0.0001
  IDUA cell activity compared with rhIDUA alone: marked dose-dependent increase
IDUA [1]; [3]
  mean IDUA cell activity at 96h: 104.3 nmol/h/mg
  mean difference in IDUA cell activity at 96h, rhIDUA + compound vs rhIDUA alone: 28.65 ± 3.106 nmol/h/mg
IDUA [2]; 30 μM, compounds #1 to #21
  rhIDUA stabilization by DSF (ΔTm): highest rhIDUA stabilization
IDUA [2]; dose response 0.04 to 90 μM, neutral pH
  increase of rhIDUA melting temperature: 4 ºC
